System: S. aureus
Test: Minimal inhibitory concentration (MIC), broth microdilution
Format: cell-based, Staphylococcus aureus
Details: free drug
Method: Bacteria (S. aureus, S. epidermis and E. coli) and Yeast (C. albicans) obtained from ATCC were reconstituted from its lyophilized form according to the manufacturer's protocol. Bacterial samples were cultured in tryptic soy broth (T-SB) or Mueller Hinton broth (M-HB) solution at 37° C., and yeast cells were cultured in YMB at room temperature under constant shaking of 100 rpm. The MICs of the polymers were measured using the broth microdilution method. Briefly, 100 microliters of the respect broth medium containing a polymer at various concentrations (15.6, 31.3, 62.5, 125, 250, 500, 1000, 2000 mg/L) was placed into each well of a 96-well tissue culture plate. An equal volume of microbial suspension (3×10^5 CFU/mL) was added into each well. Prior to mixing, the microbial sample was first inoculated overnight to enter its log growth phase. The concentration of microbial solution was adjusted to give an initial optical density (O.D.) reading of approximately 0.07 at 600 nm wavelength on a microplate reader (TECAN, Switzerland), which corresponds to the concentration of Mc Farland 1 solution (3×10^8 CFU/mL), the microbial solution was further diluted by 1000 times to achieve an initial loading of 3×10^5 CFU/mL. The bacterial samples were kept in an incubator at 37° C. for 18 hours, while the Yeast samples were kept at room temperature for 42 hours under constant shaking of 100 rpm. […]

SMILES: CC1(C)S[C@@H]2[C@H](NC(=O)Cc3ccccc3)C(=O)N2[C@H]1C(=O)O [PenG, Penicillin G]
- MIC S. aureus: about 0.01 mg/L
